The test system of the assay is Chlorella sp. ATCC 7516. The experiment in a line: Algal efficacy testing of dry paint films (modified ASTM 5589, 6-well plates). The assay is classed as cell-based. The following applies: 504 h. The method, then: These paints were then diluted with a biocide free acrylic/silicone based paint and mixed to prepare targeted concentrations of biocide combinations for the testing. The total biocides concentrations obtained were 125, 250, 500, 1000, 2000 and 5000 ppm. After biocides addition or dilution, the paints were mixed 90 seconds with the horse power shaker (AXEL 75M3372/Agitateur SO-10MI) until uniformity was achieved. […] After one day, the paints were applied to Schleicher & Schuell filter paper at 280 μm wet film thickness and dried for 3 days at room temperature avoiding direct exposure to sunlight. Square discs (1.8 cm×1.8 cm) were cut out from each panel and were used as the substrate for algal efficacy tests. This sample size allowed for an agar border when the sample disc was placed into the well of the test plate.
Algal efficacy was tested according to modified ASTM 5589 which is a standard accelerated test method for determining resistance of various coatings (including paints) to algal defacement. To accommodate for high-throughput screening, this method was scaled down from petri plates to 6-well plates. […]
At the end of the incubation period the samples were scored for percent inhibition regarding color intensity compared to the blank sample
The SI is calculated based on F. C. […]

Structures are written as SMILES.

Turning to `N#Cc1c(Cl)c(Cl)c(Cl)c(C#N)c1Cl` [Chlorothalonil, 2,4,5,6-tetrachloroisophthalonitrile], for the setting “Total conc 10,000 ppm in paint, three weeks, color intensity vs blank, pass level 75%”, the inhibition at 10000 ppm stood at 15%.
As for `O=c1[nH]c2c(c(=O)n1C1CCCCC1)CCC2` [Lenacil, 3-Cyclohexyl-6,7-dihydro-1H-cyclopentapyrimidine-2,4-(3H,5H)-dione], the inhibition at 1000 ppm amounted to 90%.

These data come from patent publication US20190297885A1 (Dow Global Technologies LLC, priority 2016, published 2019).
